Results as given in patent US20240002416A1 (Rheinische-Friedrich-Wilhelms-Universität Bonn, priority 2020, published 2024).
Like-named read-outs stand apart in the source and are kept apart here.

Legend:
human MRGPRX4-83L [1] = biological target: T1, human MRGPRX4-83L (Homo sapiens, UniProt Q96LA9); assay: β-arrestin assay (CHO β-arrestin ARMS1-ProLink 2 human MRGPRX4 83L); type: cell-based; conditions: for Emax: efficacy based on maximal effect of 100 nM B-16 (set as 100%), read-out: Emax; for EC50: β-arrestin recruitment, CHO cells, MRGPRX4-83L, read-out: EC50 ± SEM; for IC50: inhibition of the effect of 2.6 μM B-16
T1 construct: host or cells: CHO β-arrestin cells
T1 sequence (Q96LA9 whole entry): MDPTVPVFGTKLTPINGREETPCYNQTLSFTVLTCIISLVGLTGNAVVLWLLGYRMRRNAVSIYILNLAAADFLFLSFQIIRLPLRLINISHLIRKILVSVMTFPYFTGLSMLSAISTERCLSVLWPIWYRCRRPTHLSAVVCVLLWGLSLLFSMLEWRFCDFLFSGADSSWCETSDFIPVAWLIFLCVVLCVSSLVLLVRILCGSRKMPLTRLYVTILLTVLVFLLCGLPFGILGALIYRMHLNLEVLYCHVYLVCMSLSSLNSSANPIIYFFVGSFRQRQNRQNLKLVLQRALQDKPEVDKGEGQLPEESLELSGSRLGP
Procedure: (§1) For β-arrestin recruitment assays, recombinant Chinese hamster ovary (CHO) cells expressing the human MRGPRX4 were used (DiscoverX/Eurofins) which allowed to measure β-galactosidase complementation upon β-arrestin recruitment. For calcium mobilization assays, recombinant astrocytes expressing MRGPX4-83L, or LN229 glioblastoma cells natively expressing the MRGPRX4-83S, were used.
(§2) The assays were performed as previously described for other rhodopsin-like GPCRs (Müller, C.E.; 8-Benzamidochromen-4-one-2-carboxylic acids: potent and selective agonists for the orphan G protein-coupled receptor GPR35. J. Med. Chem. 2013, 56:5182-97; Müller, C.E. Molecular Recognition of Agonists and Antagonists by the Nucleotide-Activated G Protein-Coupled P2Y2 Receptor. J. Med. Chem. 2017, 60:8425-8440).

human MRGPRX4-83L [2] = biological target: T1, human MRGPRX4-83L; assay: Calcium assay (human MRGPRX4 83L), recombinant astrocytes; type: cell-based; conditions: for EC50: calcium mobilization, MRGPRX4-83L, read-out: EC50 ± SEM; for Emax: efficacy based on maximal effect of 1 μM B-16 (set as 100%), read-out: Emax
Procedure: as §1, §2

MRGPRX4-83S = MRGPRX4-83S (Homo sapiens, UniProt Q96LA9, L83S); assay: β-arrestin assay (CHO β-arrestin human MRGPRX4-83S); type: cell-based; set-up: host or cells: CHO β-arrestin cells; conditions: for Emax: efficacy based on 100 nM B-16 (set as 100%), read-out: Emax; for EC50: β-arrestin recruitment, CHO cells, MRGPRX4-83S, read-out: EC50 ± SEM
MRGPRX4-83S, sequence (Q96LA9 whole entry L83S): as the sequence (Q96LA9 whole entry) above, with L83S counted along it
Procedure: as §1, §2

[3] = Table 1, means of 3-4 experiments

| Emax (human MRGPRX4-83L [1]; Table 1) | Emax (human MRGPRX4-83L [2]; Table 1) | melting point | Emax (MRGPRX4-83S; Table 2) | IC50 (MRGPRX4-83S) | Emax (MRGPRX4-83S; Table 3) | EC50 (MRGPRX4-83S; Table 3) | Emax (human MRGPRX4-83L [1]; Table 4) | EC50 (human MRGPRX4-83L [1]; Table 4) | EC50 (human MRGPRX4-83L [2]; Table 4) | Emax (human MRGPRX4-83L [2]; Table 4) | SMILES | EC50 (human MRGPRX4-83L [1]; [3]) | EC50 (human MRGPRX4-83L [2]; Table 1) | EC50 (MRGPRX4-83S; Table 2) | IC50 (human MRGPRX4-83L [1]; Table 1) | IC50 (human MRGPRX4-83L [2]) |
| --- | --- | --- | --- | --- | --- | --- | --- | --- | --- | --- | --- | --- | --- | --- | --- | --- |
| 98% | 114% | 209 to 212 °C | 143% | – | – | – | – | – | – | – | C#CCn1c(=O)c2[nH]c(CCc3ccccc3Br)nc2n(CCCCP(=O)(O)O)c1=O [B-8, (4-(8-(2-Bromophenethyl)-2,6-dioxo-1-(prop-2-yn-1-yl)-1,2,6,7-tetrahydro-3H-purin-3-yl)butyl)phosphonic acid] | 243 ± 45 nM | 22.7 ± 7.2 nM | 3.15 ± 0.82 nM | – | – |
| 107% | 107% | 207 to 209 °C | 116% | – | – | – | – | – | – | – | C#CCn1c(=O)c2[nH]c(CCc3ccccc3Cl)nc2n(CCCCP(=O)(O)O)c1=O [B-9, (4-(8-(2-Chlorophenethyl)-2,6-dioxo-1-(prop-2-yn-1-yl)-1,2,6,7-tetrahydro-3H-purin-3-yl)butyl)phosphonic acid] | 1260 ± 270 nM | 55.2 ± 1.7 nM | 3.45 ± 0.28 nM | – | – |
| – | 100% | 254 to 256 °C | – | 9720 ± 1050 nM | – | – | – | – | – | – | C#CCn1c(=O)c2[nH]c(CCc3ccc(OC)c(OC)c3)nc2n(CCCCP(=O)(O)O)c1=O [B-11, (4-(8-(3,4-Dimethoxyphenethyl)-2,6-dioxo-1-(prop-2-yn-1-yl)-1,2,6,7-tetrahydro-3H-purin-3-yl)butyl)phosphonic acid] | > 10000 nM | 28000 ± 3300 nM | – | 50500 ± 1400 nM | – |
| – | – | 212 to 214 °C | – | – | 68% | 36.7 ± 2.8 nM | – | – | – | – | C#CCn1c(=O)c2[nH]c(CCc3ccc(-c4ccccc4)cc3)nc2n(CCCCP(=O)(O)O)c1=O [B-27, (4-(8-(2-([1,1′-Biphenyl]-4-yl)ethyl)-2,6-dioxo-1-(prop-2-yn-1-yl)-1,2,6,7-tetrahydro-3H-purin-3-yl)butyl)phosphonic acid] | – | – | – | – | – |
| – | – | 202 to 204 °C | – | – | 89% | 0.0937 ± 0.0523 nM | 94% | 87.4 ± 24.2 nM | 0.389 ± 0.092 nM | 103% | C#CCn1c(=O)c2c(nc(CCc3ccccc3I)n2CC)n(CCCCP(=O)(O)O)c1=O [B-31, (4-(7-Ethyl-8-(2-iodophenethyl)-2,6-dioxo-1-(prop-2-yn-1-yl)-1,2,6,7-tetrahydro-3H-purin-3-yl)butyl)phosphonic acid] | – | – | – | – | – |
| – | – | 133 to 135 °C | – | – | 92% | 12.5 ± 1.3 nM | – | – | – | – | C#CCn1c(=O)c2c(nc(CCc3ccc(CC)cc3)n2CC2CCCC2)n(CCCCP(=O)(O)O)c1=O [B-42, (4-(7-(cyclopentylmethyl)-8-(4-ethylphenethyl)-2,6-dioxo-1-(prop-2-yn-1-yl)-1,2,6,7-tetrahydro-3H-purin-3-yl)butyl)phosphonic acid] | – | – | – | – | – |
| – | – | 110 to 112 °C | – | – | – | – | 94% | 1070 ± 350 nM | 15.5 ± 1 nM | 113% | C#CCn1c(=O)c2c(nc(CCc3ccccc3Br)n2C)n(CCCCCP(=O)(O)O)c1=O [B-53, (5-(8-(2-Bromophenethyl)-7-methyl-2,6-dioxo-1-(prop-2-yn-1-yl)-1,2,6,7-tetrahydro-3H-purin-3-yl)pentyl)phosphonic acid] | – | – | – | – | – |
| – | – | 146 to 148 °C | – | – | – | – | 96% | 534 ± 170 nM | 20.1 ± 4.1 nM | 103% | C#CCn1c(=O)c2c(nc(CCc3ccccc3Br)n2CC)n(CCCCCP(=O)(O)O)c1=O [B-54, (5-(8-(2-Bromophenethyl)-7-ethyl-2,6-dioxo-1-(prop-2-yn-1-yl)-1,2,6,7-tetrahydro-3H-purin-3-yl)pentyl)phosphonic acid] | – | – | – | – | – |
| – | – | 221 to 223 °C | – | – | – | – | 91% | 576 ± 83 nM | 57.8 ± 18.9 nM | 102% | C#CCn1c(=O)c2c(nc(CCc3ccccc3Br)n2C)n(CCCCCCP(=O)(O)O)c1=O [B-56, (6-(8-(2-Bromophenethyl)-7-methyl-2,6-dioxo-1-(prop-2-yn-1-yl)-1,2,6,7-tetrahydro-3H-purin-3-yl)hexyl)phosphonic acid] | – | – | – | – | – |
| – | – | 223 to 225 °C | – | – | – | – | 97% | 766 ± 357 nM | 474 ± 152 nM | 98% | C#CCn1c(=O)c2c(nc(CCc3ccccc3Br)n2CC)n(CCCCCCP(=O)(O)O)c1=O [B-57, (6-(8-(2-Bromophenethyl)-7-ethyl-2,6-dioxo-1-(prop-2-yn-1-yl)-1,2,6,7-tetrahydro-3H-purin-3-yl)hexyl)phosphonic acid] | – | – | – | – | – |

| SMILES | Emax (human MRGPRX4-83L [1]; Table 1) | Emax (human MRGPRX4-83L [2]; Table 1) | melting point | Emax (MRGPRX4-83S; Table 2) | IC50 (MRGPRX4-83S) | Emax (MRGPRX4-83S; Table 3) | EC50 (MRGPRX4-83S; Table 3) | Emax (human MRGPRX4-83L [1]; Table 4) | EC50 (human MRGPRX4-83L [1]; Table 4) | EC50 (human MRGPRX4-83L [2]; Table 4) | Emax (human MRGPRX4-83L [2]; Table 4) | EC50 (human MRGPRX4-83L [1]; [3]) | EC50 (human MRGPRX4-83L [2]; Table 1) | EC50 (MRGPRX4-83S; Table 2) | IC50 (human MRGPRX4-83L [1]; Table 1) | IC50 (human MRGPRX4-83L [2]) |
| --- | --- | --- | --- | --- | --- | --- | --- | --- | --- | --- | --- | --- | --- | --- | --- | --- |
| C#CCn1c(=O)c2[nH]c(CCc3ccccc3Br)nc2n(CCCCCCP(=O)(O)O)c1=O [B-55, (6-(8-(2-Bromophenethyl)-2,6-dioxo-1-(prop-2-yn-1-yl)-1,2,6,7-tetrahydro-3H-purin-3-yl)hexyl)phosphonic acid] | – | – | 225 to 227 °C | – | – | – | – | 98% | 857 ± 220 nM | 57.8 ± 18.9 nM | 94% | – | – | – | – | – |
| C#CCn1c(=O)c2[nH]c(CCc3ccccc3OC)nc2n(CCCCP(=O)(OCC)OCC)c1=O [C-1, Diethyl (4-(8-(2-Methoxyphenethyl)-2,6-dioxo-1-(prop-2-yn-1-yl)-1,2,6,7-tetrahydro-3H-purin-3-yl)butyl)phosphonate] | – | – | 104 to 106 °C | – | – | – | – | – | – | – | – | > 10000 nM | > 10000 nM | > 10000 nM | > 10000 nM | > 10000 nM |
| C#CCn1c(=O)c2c(nc(CCc3ccccc3OC)n2C)n(CCCCP(=O)(OCC)OCC)c1=O [C-2, Diethyl (4-(8-(2-methoxyphenethyl)-7-methyl-2,6-dioxo-1-(prop-2-yn-1-yl)-1,2,6,7-tetrahydro-3H-purin-3-yl)butyl)phosphonate] | – | – | 124 to 146 °C | – | – | – | – | – | – | – | – | > 10000 nM | > 10000 nM | > 10000 nM | > 10000 nM | > 10000 nM |
| C#CCn1c(=O)c2[nH]c(CCc3cccc(Br)c3)nc2n(CCCCP(=O)(OCC)OCC)c1=O [C-3, Diethyl (4-(8-(3-bromophenethyl)-2,6-dioxo-1-(prop-2-yn-1-yl)-1,2,6,7-tetrahydro-3H-purin-3-yl)butyl)phosphonate] | – | – | 133 to 135 °C | – | – | – | – | – | – | – | – | > 10000 nM | > 10000 nM | > 10000 nM | > 10000 nM | > 10000 nM |
| C#CCn1c(=O)c2[nH]c(CCc3cccc(C)c3)nc2n(CCCCP(=O)(OCC)OCC)c1=O [C-4, Diethyl (4-(8-(3-methylphenethyl)-2,6-dioxo-1-(prop-2-yn-1-yl)-1,2,6,7-tetrahydro-3H-purin-3-yl)butyl)phosphonate] | – | – | 111 to 113 °C | – | – | – | – | – | – | – | – | > 10000 nM | > 10000 nM | > 10000 nM | > 10000 nM | > 10000 nM |
| C#CCn1c(=O)c2c(nc(CCc3cccc(C(F)(F)F)c3)n2C)n(CCCCP(=O)(OCC)OCC)c1=O [C-5, Diethyl (4-(7-methyl-2,6-dioxo-1-(prop-2-yn-1-yl)-8-(3-(trifluoromethyl)phenethyl)-1,2,6,7-tetrahydro-3H-purin-3-yl)butyl)phosphonate] | – | – | 121 to 124 °C | – | – | – | – | – | – | – | – | > 10000 nM | > 10000 nM | > 10000 nM | > 10000 nM | > 10000 nM |
| CCOP(=O)(CCCCn1c(=O)n(CC2CCC2)c(=O)c2[nH]c(CCc3cccc(OC)c3)nc21)OCC [C-7, Diethyl (4-(1-(cyclobutylmethyl)-8-(3-methoxyphenethyl)-2,6-dioxo-1,2,6,7-tetrahydro-3H-purin-3-yl)butyl)phosphonate] | – | – | 82 to 84 °C | – | – | – | – | – | – | – | – | > 10000 nM | > 10000 nM | > 10000 nM | > 10000 nM | > 10000 nM |
| CCOP(=O)(CCCCn1c(=O)n(CC)c(=O)c2[nH]c(C3CC3c3ccccc3)nc21)OCC (centres unmarked) [C-9, Diethyl (4-(1-ethyl-2,6-dioxo-8-(2-phenylcyclopropyl)-1,2,6,7-tetrahydro-3H-purin-3-yl)butyl)phosphonate] | – | – | 124 to 126 °C | – | – | – | – | – | – | – | – | > 10000 nM | > 10000 nM | > 10000 nM | > 10000 nM | > 10000 nM |
| C#CCn1c(=O)c2[nH]c(CCc3ccccc3OC)nc2n(CCCCP(=O)(O)OCC)c1=O [D-2, Ethyl hydrogen (4-(8-(2-methoxyphenethyl)-2,6-dioxo-1-(prop-2-yn-1-yl)-1,2,6,7-tetrahydro-3H-purin-3-yl)butyl)phosphonate] | 122% | 103% | 172 to 174 °C | 141% | – | – | – | – | – | – | – | 113 ± 33 nM | 3320 ± 610 nM | 0.493 ± 0.104 nM | – | – |
